One data set deals with resistant line L1210/VCR. Description: XTT antiproliferative test, L1210/VCR. The data set is classed as cell-based, murine. From the text: (§1) For further characterization, the compounds 6 and 7 according to the invention were investigated with regard to multidrug-resistant (MDR) cell lines as compared with the nonresistant wild-type cell lines.
(§2) The cell lines which were investigated are the murine cell line L1210 (ATCC CCL219), the acute myeloid leukaemia cell line LT12 (De Vries et al.; University Rotterdam) and the resistant lines L1210/VCR (Asta Medica Laboratory) and LT12/mdr (De Vries et al.; University Rotterdam).
On the technique in general: Tetrazolium dyes change colour on reduction, which living cells bring about.

Data set [1] has as its system human glioblastoma cell line SF-268. Description: Proliferation test (cellular dehydrogenase activity), SF-268. The data set is classed as cell-based. The source says:
(§3) The antiproliferative activity of the compounds 1, 2, 4, 6, 7, 9, 10, 11, 12 and 13 according to the invention was investigated in a proliferation test performed on established tumor cell lines (D. A. Scuderio et al. Cancer Res. 1988, 48: 4827-4833).
(§4) The test used determines the cellular dehydrogenase activity and makes it possible to determine cell viability and determine cell number indirectly.
(§5) The cell lines used are the human cervical carcinoma cell line KB/HeLa (ATCC CCL17), the ovarian adenocarcinoma cell line SKOV-3 (ATCC HTB77), the human glioblastoma cell line SF-268 (NCI-503138) and the lung carcinoma cell line NCI-H460 (NCI-503473). In addition, an RKOp27 cell system was used for investigating the cell cycle-specific effect of the substance (M. Schmidt et al. Oncogene 2000, 19(20): 2423-9).

The test system of data set [2] is ovarian adenocarcinoma cell line SKOV-3. Nature of the data set: Proliferation test (cellular dehydrogenase activity), SK-OV-3. Type of data set: cell-based. The following applies: Homo sapiens.
Excerpt: as §3, §4, §5

The test system of a further data set is resistant line LT12/mdr. Nature of the data set: XTT antiproliferative test, LT12/mdr. The data set is classed as cell-based.
Excerpt: as §1, §2

The next data set concerns murine cell line L1210. Description: XTT antiproliferative test, L1210. Type of data set: cell-based. The following applies: L1210 wild type.
Excerpt: as §1, §2

Data set [3] has as its system doxorubicin-resistant P388 cell line. Nature of the data set: XTT antiproliferative test, doxorubicin-resistant P388. The data set is classed as cell-based, murine.
Excerpt: as §1
(§6) The murine P388 cell line (methylcholanthrene-induced lymphoid neoplasm) [R. Supino et al.; Inst. Nazionale per lo Studio e las cura die Tumori; Milan)] and the doxorubicin-resistant P388 cell line (NSC-123127) were also included as test systems.

In data set [4] the test system is acute myeloid leukaemia cell line LT12. Description: XTT antiproliferative test, LT12. Type of data set: cell-based. The following applies: LT12 wild type.
Excerpt: as §1, §2

For data set [5], the system named is RKOp27 human colon carcinoma cells. Description: Proliferation test, RKOp27 cell system without p27kiP1 expression. The data set is classed as cell-based. The following applies: RKOp27 without expression of p27kiP1.
Excerpt: as §3, §4, §5
(§7) RKO is a human colon carcinoma line in which expression of the cell cycle inhibitor p27^kiP1 can be induced using the ecdysone expression system and lead to cell cycle arrest specifically in […].
(§8) By contrast, cell cycle-specific substances, such as, for example, tubulin inhibitors, are only cytotoxic when cells are not arrested and the cell cycle is passed through.

Another data set relates to bovine tubulin. Nature of the data set: Inhibition of the polymerization of bovine tubulin (in vitro). The data set is classed as biochemical. From the text:
In this test, tubulin purified by polymerization and depolymerization cycles is used, which is polymerized by addition of GTP and heating.
Table 1 states the %-inhibition values and Table 2 states the EC50 values of polymerization inhibition of tubulin with 30% associated proteins (MAPs).

Data set [6] has as its system human cervical carcinoma cell line KB/HeLa. Description: Proliferation test (cellular dehydrogenase activity), KB/HeLa. Type of data set: cell-based.
Excerpt: as §3, §4, §5

Data set [7] relates to RKOp27 human colon carcinoma cells, p27kiP1 induced. Description: Proliferation test, RKOp27 cell system with induced p27kiP1 expression. The following applies: RKOp27 with induced expression of p27kiP1, read-out: RKOP27ind EC50. Type of data set: cell-based.
Excerpt: as §3, §4, §5, §7, §8

Data set [8] has as its system lung carcinoma cell line NCI-H460. Description: Proliferation test (cellular dehydrogenase activity), NCI-H460. Type of data set: cell-based. The conditions noted are these: Homo sapiens.
Excerpt: as §3, §4, §5

The test system of a further data set is T1, porcine brain tubulin.
T1 construct: In addition to tubulin, the protein used comprises about 15% of associated proteins (MAPs)
Description: Inhibition of the polymerization of porcine brain tubulin (turbidimetric). The conditions noted are these: porcine brain tubulin with about 15% MAPs, GTP, 37° C. The data set is classed as biochemical. As for the experimental part: b) In an in vitro test, the compounds 1, 2, 4 and 7 were tested for inhibition of the polymerization of porcine brain tubulin. In this test, tubulin purified by polymerization and depolymerization cycles is used (Shelanski et al. Proc. Natl. Acad. Sci. U.S.A. 1973, 70, 765-768 modified according to Vater et al. Acta Histochem. Suppl. 1986, 33, 123-129), which is polymerized by addition of GTP and heating to 37° C. In addition to tubulin, the protein used comprises about 15% of associated proteins (MAPs). The measurement values were determined turbidimetrically according to Gaskin et al. J. Mol. Biol. 89 (1974) 737-755.
Table 3 states the EC50 value of the polymerization inhibition.

The subject of the next data set is murine P388 cell line. Description: XTT antiproliferative test, P388. The following applies: P388 wild type. The data set is classed as cell-based.
Excerpt: as §1, §6

The next data set has as its system KB/HeLa cells. Description: Cell cycle analysis (G2/M arrest) in KB/HeLa cells. Type of data set: cell-based. The following applies: Homo sapiens, 24 h, 24 hours at 37° C., 0.1-1000 nM, read-out: EC50 [nM] (50% cells in G2/M). The procedure:
For the cell cycle analysis, KB/HeLa cells (ATCC CCL17) were treated with different concentrations (0.1-1000 nM) of the test substances at 37° C. for 24 hours.
The percentage of cells arrested in the G2/M phase of the cell cycle after treatment with compounds according to the invention and selected reference substances is shown in Table 9 below. The results were analysed using special analytical software (ModFit™).

Molecules are shown by their SMILES. Values after ≈ are worked out from the molar mass of the structure shown. Values joined by “and” are separate entries in the source; they are usually repeats but may differ in a detail not shown here. Identical values can stand only once.

In general, IC50 refers to the point on the concentration scale where inhibition reaches its midpoint. A word on the Inhibition: it is the drop in the measured response relative to a control, in per cent. Low values mean a response near the control, high ones a response far below the control. One may read the melting point as the temperature of the solid-liquid transition.

`COc1ccc(C(=O)C=C2c3ccccc3C(=O)c3ccccc32)cc1` [Compound 7, 10-[2-(4-methoxy-phenyl)-2-oxo-ethylidene]-10H-anthracen-9-one]: the melting point was in the range of 120 to 122 °C. Further, the IC50 with resistant line L1210/VCR (Mus musculus, L1210, XTT, read-out: L1210VCR IC50) was determined as 0.017 µg/mL (≈ 0.0499 µM). Further, in the data set on resistant line L1210/VCR (XTT), the “L1210VCR IC50” value came out at 0.018 µg/mL. This compound also returned an EC50 in data set [1] of 0.02 µg/mL (≈ 0.0588 µM). This compound returned an EC50 in data set [2] of 0.02 µg/mL (≈ 0.0588 µM). The IC50 with resistant line LT12/mdr (Rattus norvegicus, LT12, XTT, read-out: LT12mdr IC50) worked out at 0.015 µg/mL (≈ 0.0441 µM). Also, the “LT12mdr IC50” value in the data set on resistant line LT12/mdr (XTT) was 0.020 µg/mL. The IC50 with murine cell line L1210 (Mus musculus, L1210, XTT) amounted to 0.016 µg/mL (≈ 0.047 µM). Also, the “L1210 IC50” value with murine cell line L1210 (XTT) was 0.017 µg/mL. In data set [3] (Mus musculus, P388, XTT, read-out: P388ADR IC50), the IC50 was determined as 0.016 µg/mL (≈ 0.047 µM). In [3] (XTT), the “P388ADR IC50” value came to 0.018 µg/mL. The compound further returned an IC50 in data set [4] (Rattus norvegicus, LT12, XTT) of 0.015 µg/mL (≈ 0.0441 µM). Besides, in data set [4] (XTT), the “LT12 IC50” value worked out at 0.019 µg/mL. This compound returned an EC50 in data set [5] of 0.027 µg/mL (≈ 0.0793 µM). The “Inhibition at 10 μg/ml [%]” value with bovine tubulin (10 μg/ml, tubulin with 30% associated proteins (MAPs), repeat values) is 99.1% and 100.0%. Besides, in the data set on bovine tubulin (bovine tubulin with 30% associated proteins (MAPs)), the “EC50 of polymerization inhibition of tubulin” value is 1.38 µg/mL and 1.50 µg/mL. Also, the EC50 in data set [6] is 0.02 µg/mL (≈ 0.0588 µM). Also, in data set [7], the EC50 was above 3.16 µg/mL. The compound further returned an EC50 in data set [8] of 0.025 µg/mL (≈ 0.0734 µM). For the same compound, the “EC50 of the polymerization inhibition” value in the data set on porcine brain tubulin was 0.5 µg/mL. In addition, half-maximal inhibition in the data set on murine P388 cell line (Mus musculus, P388, XTT) (IC50) required 0.014 µg/mL (≈ 0.0411 µM). For the same compound, in the data set with murine P388 cell line (XTT), the “P388 IC50” value came to 0.015 µg/mL.
For `CC(=O)O[C@H]1C(=O)[C@@]2(C)[C@H]([C@H](OC(=O)c3ccccc3)[C@]3(O)C[C@H](OC(=O)[C@H](O)[C@@H](NC(=O)c4ccccc4)c4ccccc4)C(C)=C1C3(C)C)[C@]1(OC(C)=O)CO[C@@H]1C[C@@H]2O` [Paclitaxel], the EC50 with KB/HeLa cells was 26.9 nM.
